Results on 1 compound are retold here after patent US11311576B2, “Methods of use for CAR T cells” (Seattle Children's Hospital, priority 2018, dated 2022).

For one data set, the system named is MDA-MB-231. The data set can be described thus: EC17 dose response, specific lysis in co-culture with E2-CAR-T cells (LDH assay). Format: cell-based, human. To be noted: 24 hours co-culture. As for the experimental part:
(§1) After 24 hours of co-culture, supernatants were harvested to determine tumor cell killing. To study the kinetics of T cell activation and FR correlation in vitro (FIG. 60A, FIG. 60B, FIG. 60C, FIG. 60D, FIG. 60E), co-cultures were carried out in FR+/− cell lines at varying E/T ratios (1:27, 1:9, 1:3, 1:1, 3:1) in the continuous presence of 10 nM EC17. The kinetics of tumor cell killing were quantified after 16 and 48 hours of co-culture. Meanwhile, a portion of the supernatants was taken after 44 hours of co-culture for measurement of IFNg, IL-2 and TNFα. Using Promega's CytoTox 96® LDH assay kit, target cell killing was quantified and expressed as specific lysis (%) which was normalized to basal levels in the absence of EC17 at defined E/T ratios. The LEGENDplex™ human Th1 cytokine panel (BioLegend, San Diego, Calif.) was used to determine CAR-T cell derived cytokines.
(§2) To study the robustness of CAR-T cell activation, 5 FR+ cell lines (KB, MDA-MB-231, HOS-FRα, THP1-FRβ, OV90) were used along with a wide range of EC17 concentration (0.1 pM to 100 μM) at an E/T ratio of 1:1 (FIG. 59A, FIG. 59B). Specific lysis (%) was quantified by Promega's LDH cytotoxicity assay kit after 24 hours of co25 culture. In all cell lines, EC17-dependent cytolysis followed a bell-shaped dose response with a somewhat broad concentration plateau (˜0.1 nM to […]) (FIG. 59A). […] However, maximal lysis obtained for each cell line ranked differently at 45% (MDA-MB-231), 27% (THP1-FRb), 18% (HOS-FRα), 15% (OV90) and 11% (KB) (FIG. 59B).

The subject of a further data set is OV90. Described as above. It is filed as cell-based, human. Conditions: 24 hours co-culture. As for the experimental part:
as §1, §2

The next data set concerns THP1-FRβ. The description is as above. Format: cell-based, human. Conditions: 24 hours co-culture. As for the experimental part:
as §1, §2

Another data set relates to HOS-FRα. Described as above. Format: cell-based, human. To be noted: 24 hours co-culture. As for the experimental part: as §1, §2
A further data set deals with KB. Described as above. It is filed as cell-based, human. Conditions: 24 hours co-culture. As for the experimental part: as §1, §2
A further data set deals with MDA-MB-231 tumor. As to the kind of experiment: Kinetics of CAR-T cell expansion and tumor uptake in MDA-MB-231 tumor bearing mice. Format: in vivo, NSG mice. As for the experimental part: When the tumor sizes averaged at ˜350±60 mm^3 on day 2, up to […] of EC17 at 500 nmol/kg were given on days 2, 9, 16, 23, and 30. For ex-vivo analysis, 3 animals were taken before the next EC17 dose on days 9, 16, 23, and 30 for a total of 4 collections. For comparison, the same EC17 dose was given to 3 CAR-T mice that had ˜4.4× larger tumor sizes on day 2 (˜1555±79 mm3). For each collection, fresh blood and tumor samples (if available) were analyzed for the presence of human CD3e+ EGFRt+ CAR-T cells by flow cytometry.
For CAR-T cell analysis in the circulation, plasma was removed from a predetermined volume of whole blood collected into tubes containing ethylenediaminetetraacetic acid anticoagulant. […] A minimum of 20,000 propidium iodide negative live cell events were collected on the Gallios flow cytometer and analyzed with the Kaluza software, version 2.1 (Beckman Coulter, Brea, Calif.). CAR-positive T cells were identified in mouse blood as human CD3e+ EGFRt+ events and absolute numbers per volume of blood were calculated using equal numbers of CountBright™ beads (Invitrogen, Carlsbad, Calif.) added to each sample. The number of tumor-infiltrating CD3ε+ EGFRt+ CAR-T cells was expressed as % total viable tumor cells analyzed.

The mark [1] stands for this setting: Homo sapiens, EC17, E/T 1:1, curve fitted up to 100 nM, read-out: half-maximal effective concentration (EC50), specific lysis.

Each structure is given as a SMILES string.

Turning to `NC1=NC2N=CC(CNc3ccc(C(=O)N[C@@H](CCC(=O)NCCNC(=S)Nc4ccc(-c5c6ccc(=O)cc-6oc6cc(O)ccc56)c(C(=O)O)c4)C(=O)O)cc3)=NC2C(=O)N1` (stereo partly drawn) [EC17, FA-(g)-ethylenediamine-FITC], the maximal lysis came to 45% in the data set on MDA-MB-231 (E/T 1:1); 15% with OV90 (E/T 1:1); 27% with THP1-FRβ (E/T 1:1); 18% in the data set on HOS-FRα (E/T 1:1); 11% in the data set on KB (E/T 1:1). The EC50 with MDA-MB-231 (Homo sapiens, MDA-MB-231, E/T 1:1, curve fitted up to 100 nM, read-out: half-maximal effective concentration (EC50), specific lysis) turned out to be 0.0045 nM; with OV90 (Homo sapiens, OV-90, E/T 1:1, curve fitted up to 100 nM, read-out: half-maximal effective concentration (EC50), specific lysis) it was 0.418 nM; with THP1-FRβ (setting [1]), 0.015 nM; in the data set with HOS-FRα (setting [1]), 0.03 nM; with KB (Homo sapiens, KB, E/T 1:1, curve fitted up to 100 nM, read-out: half-maximal effective concentration (EC50), specific lysis), 0.0053 nM. Also, in the data set on MDA-MB-231 tumor (~4.8 million E2-CAR-T cells, after EC17 administration, especially third dose), the body weight loss entry is reported as “mild body weight loss”. Also, the tumor response entry with MDA-MB-231 tumor (~4.8 million EGFRt-sorted E2-CAR-T cells, weekly EC17 500 nmol/kg) is on record as “started to respond after the second EC17 dose”.
